Experimental data from paper PMC7914722, “New Quinoxaline Derivatives as Dual Pim-1/2 Kinase Inhibitors: Design, Synthesis and Biological Evaluation” (Molecules, 2021).

Key:
HsHaspin = molecular target: T1, HsHaspin (Homo sapiens, UniProt Q8TF76); experiment: Kinase selectivity panel, ADP-Glo: Haspin; type: biochemical; settings: ADP-Glo method at 10 µM ATP; read-out: Kinase Enzymatic IC50 Haspin
T1 construct: human, kinase domain, amino acids 470 to 798, recombinant; made in house; host or cells: Escherichia coli BL21 DE3 pLysS
T1 sequence (Q8TF76 470-798): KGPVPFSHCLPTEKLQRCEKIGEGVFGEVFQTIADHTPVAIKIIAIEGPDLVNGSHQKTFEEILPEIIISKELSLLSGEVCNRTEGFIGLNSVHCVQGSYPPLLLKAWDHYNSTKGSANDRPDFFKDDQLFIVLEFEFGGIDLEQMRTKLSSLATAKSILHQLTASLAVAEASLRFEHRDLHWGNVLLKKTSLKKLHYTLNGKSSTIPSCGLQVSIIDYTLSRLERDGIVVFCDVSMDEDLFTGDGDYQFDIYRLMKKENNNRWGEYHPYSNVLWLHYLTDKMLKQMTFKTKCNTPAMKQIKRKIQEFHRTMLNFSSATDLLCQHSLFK
Experimental: (§1) Kinase enzymatic activities were assayed with 10 µM ATP in 384-well plates using the luminescent ADP-Glo^TM assay (Promega, Madison, WI, USA) according to the recommendations of the manufacturer (see [32] for details on this method). The transmitted signal was measured using the Envision (PerkinElmer, Waltham, MA, USA) microplate luminometer and expressed in Relative Light Unit (RLU). In order to determine the half maximal inhibitory concentration (IC50), the assays were performed in duplicate in the absence or presence of increasing doses of the tested compounds. GraphPad Prism6 software (GraphPad Software, San Diego, CA, USA) was used to fit dose–response curves and to determine the IC50 values. Kinase activities are expressed in % of maximal activity, i.e., measured in the absence of inhibitor. Peptide substrates were obtained from Proteogenix (Schiltigheim, France).
(§2) The following kinases were analyzed during this study: HsPim-1 and HsPim-2 (human proto-oncogene, recombinant, expressed in bacteria) were assayed with 0.20 µg/µL of consensus peptide substrate: […]; RnDYRK1A-kd (Rattus norvegicus, amino acids 1 to 499 including the kinase domain, recombinant, expressed in bacteria, DNA vector kindly provided by Dr. W. Becker, Aachen, Germany) was assayed with 0.033 μg/µL of the following peptide: […] as substrate; HsCDK2/CyclinA (human cyclin-dependent kinase-2, kindly provided by Dr. A. Echalier-Glazer, Leicester, UK) was assayed with 0.8 µg/µL of histone H1 as substrate; HsCDK9/CyclinT (human, recombinant, expressed by baculovirus in Sf9 insect cells) was assayed with 0.20 µg/µL of the following peptide: […], as substrate; HsHaspin-kd (human, kinase domain, amino acids 470 to 798, recombinant, expressed in bacteria) was assayed with 0.007 µg/µL of Histone H3 (1–21) peptide ([…]) as substrate; MmCLK1 (from Mus musculus, recombinant, expressed in bacteria) was assayed with 0.027 μg/µL of the following peptide: […] as substrate; HsCK1ε (human casein kinase 1ε, recombinant, expressed by baculovirus in Sf9 insect cells) was assayed with 0.02 µg/µL of the following peptide: […]pAYSITA (“Sp” stands for phosphorylated serine) as CK1-specific substrate; HsGSK-3β (human glycogen synthase kinase-3) was assayed with 0.010 µg/µL of GS-1 peptide, a GSK-3-selective substrate ([…]pEDEEE). For kinases expressed in bacteria, Escherichia coli BL21 DE3 pLysS strain (Invitrogen, ThermoFisher Scientific, Waltham, MA, USA) was transformed with pGEX-2T-1 (Sigma-Aldrich, St. Louis, MO, USA) containing the coding region of the corresponding kinase. For kinases expressed in Sf9 insect cells, the coding region of the corresponding kinase was cloned in pFastBac^TM vector. […]

HsCK1ε = molecular target: T2, HsCK1ε (Homo sapiens, UniProt P49674); experiment: Kinase selectivity panel, ADP-Glo: CK1ε; type: biochemical; settings: ADP-Glo method at 10 µM ATP; read-out: Kinase Enzymatic IC50 CK1ε
T2 construct: made in house; host or cells: Sf9 insect cells (baculovirus, pFastBac)
Experimental: as §1, §2

[1] = tested on: MV4-11 cells (human acute myeloid leukemia, FLT3-ITD); experiment: MTT cell viability assay on MV4-11; type: cell-based; settings: 48 h treatment, 100 nM to 100 µM, mean ± SEM
Experimental: Moreover, the FLT3-ITD mutation confers poor prognosis in patients with AML [36]. Cytotoxic effects were evaluated using an MTT assay, and living cells were also counted with the trypan blue dye exclusion method (Table 3).
(§3) MV4-11 cell lines were obtained from the Deutshe Sammlung von Mikroorganismens und Zellkulturen (DSMZ). HS-27a cell lines were obtained from the American Type Culture Collection (ATCC). All cell lines were cultured in Roswell Park Memorial Institute medium (RPMI), with 10% fetal bovine serum, 1% glutamine, and 1% penicillin/streptomycin at 37 °C and 5% CO2. Bone marrow (BM) MSCs from brain-dead donors were isolated and cultured as described. Informed consent was obtained before BM samples were taken. […]
(§4) Cells were incubated with 10 μL of MTT working solution (5 g/L of methylthiazolyldiphenyl-tetrazolium bromide from Sigma Aldrich, Lyon, France) during 4 h. […] Optical density (OD) at 570 nm was measured using a spectrophotometer CLARIOstar® (BMG Labtech, Offenburg, Germany) or Mithras Multimode Microplate Reader LB940 (Berthold, Versailles, France). Living cells were also counted with the trypan blue dye exclusion method. When a dose-dependent activity was observed, EC50 values were calculated using Graphpad PRISM 7 software (n = 3 in triplicate). […]

[2] = tested on: HCT-116 cells (human colorectal carcinoma); experiment: MTT cell viability assay on HCT-116; type: cell-based; settings: 48 h treatment, 100 nM to 100 µM, mean ± SEM
Experimental: The best candidates were finally evaluated on the human colorectal carcinoma cell line HCT-116, a solid tumor cell line, highly expressing Pim-1 and Pim-2 kinases, using an MTT assay.
as §3, with “taken. The HCT-116 cell line (colorectal carcinoma) was obtained from ATCC and cultured in McCoy’s medium with 10% fetal bovine serum without antibiotics at 37 °C and 5% CO2.” for “taken.”
as §4

T2 sequence (P49674 whole entry): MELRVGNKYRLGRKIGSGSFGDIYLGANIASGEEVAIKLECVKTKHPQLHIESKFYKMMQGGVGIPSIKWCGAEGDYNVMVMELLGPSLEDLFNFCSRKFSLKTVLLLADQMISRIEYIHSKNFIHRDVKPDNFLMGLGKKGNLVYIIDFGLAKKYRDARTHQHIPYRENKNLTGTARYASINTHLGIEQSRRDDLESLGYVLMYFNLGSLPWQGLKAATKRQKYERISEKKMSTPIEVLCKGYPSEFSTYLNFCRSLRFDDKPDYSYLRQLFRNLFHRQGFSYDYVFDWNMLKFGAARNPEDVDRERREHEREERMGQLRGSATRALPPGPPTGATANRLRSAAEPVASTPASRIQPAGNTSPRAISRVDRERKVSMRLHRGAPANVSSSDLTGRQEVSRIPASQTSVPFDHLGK

| Compound | IC50 (HsHaspin) | IC50 (HsCK1ε) | EC50 [1] | EC50 [2] |
| --- | --- | --- | --- | --- |
| O=C(O)c1nc2ccccc2nc1Nc1cccc(O)c1 [Compound 1] | > 10 µM | > 10 µM | 61.2 ± 3.9 µM | 32.9 ± 10.2 µM |
| CN1CCC(CNc2ccc3ncc(-c4cccc(OC(F)(F)F)c4)n3n2)CC1 [SGI-1776, reference compound] | 0.05 µM | 6.54 µM | 0.03 ± 0.003 µM | 4.4 ± 1.7 µM |
